This test deals with testosterone 5α-reductase. Put plainly: 5α-reductase inhibitory activity (conversion of radiolabelled testosterone to 5α-dihydrotestosterone, microsomal enzyme specimen). The settings on record: rat prostate microsomes; pH 6.6; 25° C.; 60 minutes; 8.5 pmol labelled testosterone. The class given is biochemical, rats. As for the experimental part:
The 5α-reductase inhibitory activity was determined as follows.
Prostate gland cells of rats were crushed and a specimen of testosterone 5α-reductase was then prepared by separating microsome from the crushed liquid mixture. The conversion of the testosterone to 5α-dihydrotestosterone by the use of the above-prepared enzyme specimen was monitored by radioisotopically labelled testosterone. The reaction mixture was extracted with ethyl acetate and the extract was developed twice by silica gel thin layer chromatography (solvent system, dichloromethane:cyclohexane:acetone=15:4:1). The amount of 5α-dihydrotestosterone was determined from the intensities of the radioactivity.
A 30 μl amount of a 0.05 M phosphate buffer (pH=6.6), 10 μl of an enzyme specimen, 8.5 pmol of labelled testosterone, 50 nmol of a reduced form of NADP (nicotinamide adenine dinucleotide phosphate), and 10 μl of a test sample were mixed (final volume […]). The mixture was incubated at a temperature of 25° C. for 60 minutes.
The reaction was stopped by the addition of 100 μl of ethyl acetate, and the reaction mixture was extracted by vigorous shaking. The extract was developed in the same manner as mentioned above, and the intensity of the radioisotope was measured by using a scintillation counter.
The above-mentioned determination was applied to samples having various concentrations. […]

SMILES strings stand for the structures.

In general, IC50 refers to the midpoint of a concentration-inhibition curve. Low values mean higher potency, high ones lower potency. The compound `CCCCCCCCCCCCCCCCCC(=O)O` [Stearic acid] came in with an IC50 of 1300 µM. Take `CC/C=C\C/C=C\C/C=C\CCCCCCCC(=O)O` [Linolenic acid]: the IC50 was determined as 1600 µM.

These data come from US4737362A, “Hair treatment composition” (Suntory Limited, priority 1983, dated 1988).
